According to PMC6662706, “Short amylin receptor antagonist peptides improve memory deficits in Alzheimer’s disease mouse model” (Scientific Reports, 2019):
No end group written: not given here.

Legend:
HEK-WT cells = test: Flow cytometry cell binding and uptake of Cy5.5 labeled peptides, HEK-WT cells; format: cell-based, human; conditions: Cy5.5 labeled peptides 5 µM, 1 h, 37 °C
Procedure: Next, we labeled R5, R14 peptides with Cy5.5 to examine their in vitro binding efficacy and specificity compared with AC253 in HEK-AMY3 cells using flow cytometry and fluorescence microscopy (Fig. 1A,C).
For flow cytometry studies, HEK-AMY3 cells were used to determine cell binding and uptake and binding of Cy5.5 labeled AC253, and R5, R14, R11 fragments. Cell were plated at a density of 1.5 × 10^5 cells/well and cultured overnight in 12-well plates at 37 °C. Peptides (5 µM) were added and incubated for 1 h at 37 °C in serum free media. The culture media was then discarded, and cell monolayers were washed with PBS containing 2 mM EDTA and 0.5% BSA adjusted to pH 7.4 at 37°C, then cells were washed again with cold buffer and incubated with 0.25% trypsin to remove cell surface–associated fluorophores. Cells were then dispersed in FACS solution (10% FBS in PBS), and analyzed using a FACSCanto II flow cytometer (BD Biosciences, USA) selecting a detection window between 720 and 840 nm, and fluorescence histograms and dot plots were generated using FLOWJO software (Tree Star, Inc, USA). At least 10,000 gated events per sample were analyzed to develop the histogram. HEK-WT cells was used as negative control.

[1] = Ex vivo NIR fluorescence brain imaging after ip injection (brain penetration); format: in vivo, mouse; conditions: wild-type mice, 0, 0.6, 2, 10, 20 mg/kg single ip dose, 2 h, n = 3 per dose
Source text: Blood brain barrier (BBB) penetration can limit the potential of long sequence peptides as therapeutic agents in central nervous system (CNS). Previously, we have reported that a cyclized form of AC253 peptide and to a lesser degree its linear form can both penetrate the BBB at therapeutically relevant levels, and are localized to the hippocampus and cortex, regions relevant to memory and learning processes. Therefore, we examined the ability of Cy5.5 labeled peptide fragments (R5, and R14) to penetrate BBB in wild-type mice using NIR fluorescence ex vivo brain imaging. Brain fluorescence resulting from either R5 or R14 was assessed against full length AC253 2 h after a single intraperitoneal (ip) injection of peptides. […] Fluorescence signals were distributed throughout the cortex, but particularly strong within the hippocampal regions, where a very high density of amylin receptor expression has been reported. […]
In vivo brain penetration and pharmacokinetics of the peptides were determined in 6-month-old male or female wild-type (C57BL/6 background) and heterozygous CTR mice (het-CTR). […]
For ex vivo imaging experiments and peptide brain uptake, we used age matched 6-month-old wild-type littermate (C57BL/6 background) mice. […] Region of interest was drawn around the brain region and analyzed using the Kodak ID 3.6 software and the mean fluorescence intensity was recorded. […]

hippocampal LTP (CA1) = test: Hippocampal LTP in slices from 8 month old TgCRND8 mice; design: species or system mouse; conditions: n = 6 recordings
Procedure: We examined whether the peptide fragments were capable of influencing Aβ- or hAmylin-induced reduction of hippocampal LTP in mice. Exposure of hippocampal slices from wild-type mice to hAmylin (50 nM) or Aβ (50 nM) depressed LTP induced by a weak tetanization protocol at the CA1 region as previously reported[20],[30]. To determine whether peptides affected hAmylin or Aβ- induced depression of LTP, we applied 250 nM R5 or R14 continuously for 5 min prior to exposure of the hippocampal slices to 50 nM hAmylin or Aβ and the subsequent LTP induction. […] We therefore sought to determine whether peptide fragments were also capable of improving LTP levels in the same TgCRND8 AD mouse model. […] Importantly, doses of the short peptide fragments used in these experiments were equimolar to those used for AC253 and pramlintide in our previous studies[20],[30].
For electrophysiology experiment, hippocampal slices (400-μm thick) were prepared using a vibratome from wild type and TgCRND8 mice (8 month of age, male or female). […]
Brains were quickly removed from mice following decapitation, placed in a cold artificial cerebral spinal fluid (aCSF) on a vibratome chamber, and transverse sections cut through the hippocampus. […] Before 3-TBS or drug application, the responses were monitored for at least 10 min to ensure a stable baseline of fEPSP. […]

Row | Substance | binding and uptake in HEK-WT cells compared to HEK-AMY3 cells (HEK-WT cells) | accumulation in the brain at increasing dose [1] | effect on chronically depressed LTP in TgCRND8 slices (hippocampal LTP (CA1))
1 | LGRLSQELHRLQTYPRTNTGSNTY-NH2 (C-terminus assumed) [AC253, reference compound] | reduced binding and uptake |  | 
2 | SQELHRLQTYPR-NH2 [R5] |  | dose-dependent | significant increase in LTP
